Assay results reported in PubChem BioAssay AID2060505 (Molecular Pharmacology Branch, DTP, NCI, 2025).

Tested on: 633275-114-R-J1-PDC complex spheroids, viability
Assay: Anticancer human tumor 633275-114-R-J1-PDC patient-derived endometrial adenocarcinoma cell line growth inhibition [GQUAD]
Details: for IC50: curve of first compound; for viability, T/C: stronger effect = lower value; active = viability on the fitted dose curve at most 10% of control; inactive = the rest
Outline: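 Viability of tumor cells grown as complex spheroids with endothelial and stromal cells, exposed to drug combinations. Top concentration at or near clinical Cmax (else 10 microM), diluted in half-log increments.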
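Note: spheroids exposed to the agents for seven days.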
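Throughout, for viability, T/C: percent of DMSO vehicle control viability which is 100%.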

CC(C)(O)C1CCC(Nc2ccc3ncc(-c4cccc(C(F)(F)F)c4)n3n2)CC1 (configuration not stated) + Cc1cnc(CNC(=O)c2c(=O)c3ccc(N4CCCN(C)CC4)nc3n3c2sc2ccccc23)cn1
< 31.6 nM: IC50 (second compound 0.1 µM) | IC50 (second compound 0.316 µM) | IC50 (second compound 1 µM) | IC50 (second compound 3.16 µM) | IC50 (second compound 10 µM)
886 nM: IC50 (second compound 0.0316 µM)
active: viability, T/C (second compound 3.16 µM, first compound 10 µM) 7.92% | viability, T/C (second compound 10 µM, first compound 3.16 µM) 0.2% | viability, T/C (second compound 10 µM, first compound 10 µM) 0.19%
inactive: viability, T/C (second compound 0.0316 µM, first compound 0.0316 µM) 64.2% | viability, T/C (second compound 0.0316 µM, first compound 0.1 µM) 66.3% | viability, T/C (second compound 0.0316 µM, first compound 0.316 µM) 64.7% | viability, T/C (second compound 0.0316 µM, first compound 1 µM) 48.2% | viability, T/C (second compound 0.0316 µM, first compound 3.16 µM) 22.2% | viability, T/C (second compound 0.0316 µM, first compound 10 µM) 32.5% | viability, T/C (second compound 0.1 µM, first compound 0.0316 µM) 52.1% | viability, T/C (second compound 0.1 µM, first compound 0.1 µM) 52.7% | viability, T/C (second compound 0.1 µM, first compound 0.316 µM) 44.5% | viability, T/C (second compound 0.1 µM, first compound 1 µM) 39.9% | viability, T/C (second compound 0.1 µM, first compound 3.16 µM) 19.4% | viability, T/C (second compound 0.1 µM, first compound 10 µM) 26.1% | viability, T/C (second compound 0.316 µM, first compound 0.0316 µM) 46.1% | viability, T/C (second compound 0.316 µM, first compound 0.1 µM) 42.3% | viability, T/C (second compound 0.316 µM, first compound 0.316 µM) 45.5% | viability, T/C (second compound 0.316 µM, first compound 1 µM) 35.8% | viability, T/C (second compound 0.316 µM, first compound 3.16 µM) 18.6% | viability, T/C (second compound 0.316 µM, first compound 10 µM) 22.3% | viability, T/C (second compound 1 µM, first compound 0.0316 µM) 43.8% | viability, T/C (second compound 1 µM, first compound 0.1 µM) 43.5% | viability, T/C (second compound 1 µM, first compound 0.316 µM) 42.6% | viability, T/C (second compound 1 µM, first compound 1 µM) 34.6% | viability, T/C (second compound 1 µM, first compound 3.16 µM) 16.5% | viability, T/C (second compound 1 µM, first compound 10 µM) 19.8% | viability, T/C (second compound 3.16 µM, first compound 0.0316 µM) 38.3% | viability, T/C (second compound 3.16 µM, first compound 0.1 µM) 40.4% | viability, T/C (second compound 3.16 µM, first compound 0.316 µM) 39.7% | viability, T/C (second compound 3.16 µM, first compound 1 µM) 28% | viability, T/C (second compound 3.16 µM, first compound 3.16 µM) 0.11% | viability, T/C (second compound 10 µM, first compound 0.0316 µM) 30.7% | viability, T/C (second compound 10 µM, first compound 0.1 µM) 33.9% | viability, T/C (second compound 10 µM, first compound 0.316 µM) 30.4% | viability, T/C (second compound 10 µM, first compound 1 µM) 15.6%
